From ChEMBL document CHEMBL5360618, “PepScaf: Harnessing Machine Learning with In Vitro Selection toward De Novo Macrocyclic Peptides against IL-17C/IL-17RE Interaction” (J Med Chem, 2023)
Starred links: 1 amine or outer side, 2 acyl side, 3 side chain; linkers in the order of their positions; H or OH if unused. Positions of bridges follow the written chain, without caps; N, C: chain ends. Residues, ends and D or L forms follow the SMILES beside them. CO = O=C([*:1])[*:2]

Molecular target: T1, IL17-RE-IL-17C (Homo sapiens, UniProt Q8NFR9+Q9P0M4)
T1 sequence (Q9P0M4 whole entry): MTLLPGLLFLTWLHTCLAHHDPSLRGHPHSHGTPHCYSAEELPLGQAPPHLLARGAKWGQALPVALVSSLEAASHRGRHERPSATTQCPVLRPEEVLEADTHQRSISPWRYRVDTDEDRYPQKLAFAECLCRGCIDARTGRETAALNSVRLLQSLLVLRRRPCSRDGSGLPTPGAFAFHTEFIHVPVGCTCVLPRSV
T1 sequence (Q8NFR9 whole entry): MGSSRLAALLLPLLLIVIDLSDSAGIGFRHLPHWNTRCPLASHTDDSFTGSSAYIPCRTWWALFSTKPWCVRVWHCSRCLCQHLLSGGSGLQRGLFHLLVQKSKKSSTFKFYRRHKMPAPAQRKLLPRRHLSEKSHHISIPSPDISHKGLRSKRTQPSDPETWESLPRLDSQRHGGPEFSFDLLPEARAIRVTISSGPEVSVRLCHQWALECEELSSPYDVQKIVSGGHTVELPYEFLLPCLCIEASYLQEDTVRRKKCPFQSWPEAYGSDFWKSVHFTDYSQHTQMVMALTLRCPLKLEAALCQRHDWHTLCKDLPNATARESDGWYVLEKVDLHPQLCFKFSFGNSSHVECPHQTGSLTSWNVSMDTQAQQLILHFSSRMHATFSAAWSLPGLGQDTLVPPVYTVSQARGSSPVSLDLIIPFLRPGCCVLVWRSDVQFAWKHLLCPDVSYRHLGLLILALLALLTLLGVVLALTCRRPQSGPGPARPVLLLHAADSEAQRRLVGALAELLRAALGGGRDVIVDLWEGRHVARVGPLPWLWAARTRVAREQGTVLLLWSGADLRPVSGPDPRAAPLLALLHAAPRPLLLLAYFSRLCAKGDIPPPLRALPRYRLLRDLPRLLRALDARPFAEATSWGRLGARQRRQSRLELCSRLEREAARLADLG
Test: Inhibition of IL-17C/IL-17RE interaction (unknown origin) incubated for 1.5 hrs by ELISA method
Type: protein-complex assay

SMILES | IC50
CC[C@H](C)[C@@H]1NC(=O)[C@H](CCCNC(=N)N)NC(=O)[C@H](Cc2ccc(O)cc2)NC(=O)[C@H](Cc2ccc(O)cc2)NC(=O)[C@H](Cc2c[nH]cn2)NC(=O)[C@H](Cc2c[nH]cn2)NC(=O)[C@H](Cc2ccc(O)cc2)NC(=O)CSC[C@@H](C(=O)NCC(N)=O)NC(=O)CNC(=O)[C@H](CC(C)C)NC(=O)[C@H](CCC(=O)O)NC(=O)CNC(=O)[C@H](C)NC(=O)[C@H](CC(C)C)NC1=O ({CH2CO}-YHHYYRILAGELGCG-NH2; thioether N-14) | > 30000 nM
CC(C)C[C@@H]1NC(=O)[C@H](Cc2c[nH]c3ccccc23)NC(=O)[C@H](C)NC(=O)[C@H](CC(=O)O)NC(=O)[C@H](Cc2ccccc2)NC(=O)[C@H](Cc2c[nH]cn2)NC(=O)[C@H](Cc2ccc(O)cc2)NC(=O)CSC[C@@H](C(=O)NCC(N)=O)NC(=O)[C@H](CC(C)C)NC(=O)[C@H](CC(C)C)NC(=O)[C@H]([C@@H](C)O)NC(=O)[C@H](CO)NC1=O ({CH2CO}-YHFDAWLSTLLCG-NH2; thioether N-12) | > 30000 nM
CC[C@H](C)[C@@H]1NC(=O)[C@H](Cc2c[nH]c3ccccc23)NC(=O)[C@H](C)NC(=O)[C@H](CC(=O)O)NC(=O)[C@H](Cc2ccccc2)NC(=O)[C@H](Cc2c[nH]cn2)NC(=O)[C@H](Cc2ccc(O)cc2)NC(=O)CSC[C@@H](C(=O)NCC(N)=O)NC(=O)[C@H](CCC(N)=O)NC(=O)[C@H](CC(C)C)NC(=O)[C@H](CC(C)C)NC(=O)[C@H]([C@@H](C)O)NC(=O)[C@H](C)NC1=O ({CH2CO}-YHFDAWIATLLQCG-NH2; thioether N-13) | > 30000 nM
CC[C@H](C)[C@@H]1NC(=O)[C@H](C)NC(=O)[C@H](Cc2ccc(O)cc2)NC(=O)[C@H](Cc2ccc(O)cc2)NC(=O)[C@H](Cc2c[nH]cn2)NC(=O)[C@H](Cc2c[nH]cn2)NC(=O)[C@H](Cc2ccc(O)cc2)NC(=O)CSC[C@@H](C(=O)NCC(N)=O)NC(=O)CNC(=O)[C@H](CC(C)C)NC(=O)[C@H](CCC(=O)O)NC(=O)CNC(=O)[C@H](Cc2ccc(O)cc2)NC(=O)[C@H](CC(C)C)NC1=O ({CH2CO}-YHHYYAILYGELGCG-NH2; thioether N-14) | 400 nM
CC[C@H](C)[C@@H]1NC(=O)[C@H](CCCNC(=N)N)NC(=O)[C@H](Cc2ccc(O)cc2)NC(=O)[C@H](C)NC(=O)[C@H](Cc2c[nH]cn2)NC(=O)[C@H](Cc2c[nH]cn2)NC(=O)[C@H](Cc2ccc(O)cc2)NC(=O)CSC[C@@H](C(=O)NCC(N)=O)NC(=O)CNC(=O)[C@H](CC(C)C)NC(=O)[C@H](CCC(=O)O)NC(=O)CNC(=O)[C@H](Cc2ccc(O)cc2)NC(=O)[C@H](CC(C)C)NC1=O ({CH2CO}-YHHAYRILYGELGCG-NH2; thioether N-14) | > 30000 nM
CC[C@H](C)[C@@H]1NC(=O)[C@H](CO)NC(=O)[C@H](Cc2ccc(O)cc2)NC(=O)[C@H]([C@@H](C)CC)NC(=O)[C@H]([C@@H](C)O)NC(=O)[C@H](CC(C)C)NC(=O)[C@H](CC(=O)O)NC(=O)[C@H]([C@@H](C)CC)NC(=O)[C@H](C(C)C)NC(=O)[C@H](Cc2ccc(O)cc2)NC(=O)[C@H](CC(=O)O)NC(=O)[C@H](CCCCN)NC(=O)[C@H](Cc2ccc(O)cc2)NC(=O)CSC[C@@H](C(=O)NCC(N)=O)NC1=O ({CH2CO}-YKDYVIDLTIYSICG-NH2; thioether N-14) | > 30000 nM
CC[C@H](C)[C@@H]1NC(=O)[C@@H]2CCCN2C(=O)[C@H](CCCNC(=N)N)NC(=O)[C@H](Cc2c[nH]c3ccccc23)NC(=O)[C@H](Cc2ccccc2)NC(=O)[C@H](CC(N)=O)NC(=O)[C@@H]2CCCN2C(=O)[C@H](Cc2ccccc2)NC(=O)[C@H](Cc2c[nH]c3ccccc23)NC(=O)[C@H](Cc2ccc(O)cc2)NC(=O)CSC[C@@H](C(=O)NCC(N)=O)NC(=O)[C@H](CC(N)=O)NC1=O ({CH2CO}-YWFPNFWRPINCG-NH2; thioether N-12) | > 30000 nM
CC(C)C[C@@H]1NC(=O)[C@H](C)NC(=O)[C@H](CCCNC(=N)N)NC(=O)[C@H](Cc2ccc(O)cc2)NC(=O)[C@H](Cc2ccc(O)cc2)NC(=O)[C@H](Cc2c[nH]cn2)NC(=O)[C@H](Cc2c[nH]cn2)NC(=O)[C@H](Cc2ccc(O)cc2)NC(=O)SC[C@@H](C(=O)NCC(N)=O)NC(=O)CNC(=O)[C@H](CC(C)C)NC(=O)[C@H](CCC(=O)O)NC(=O)CNC(=O)[C@H](Cc2ccc(O)cc2)NC1=O (YHHYYRALYGELGCG-NH2; linker N-14 via CO) | 254 nM

Compounds with a lower IC50, results first:

IC50 | SMILES
6.4 nM | CC(C)C[C@@H]1NC(=O)[C@H](CC(N)=O)NC(=O)CNC(=O)[C@H](Cc2ccc(O)cc2)NC(=O)[C@H](CC(C)C)NC(=O)[C@H](CO)NC(=O)[C@H](C(C)C)NC(=O)[C@H](Cc2ccc(O)cc2)NC(=O)[C@H](Cc2ccc(O)cc2)NC(=O)[C@H](CC(C)C)NC(=O)[C@H](Cc2c[nH]cn2)NC(=O)[C@H](Cc2ccc(O)cc2)NC(=O)CSC[C@@H](C(=O)NCC(N)=O)NC(=O)CNC1=O ({CH2CO}-YHLYYVSLYGNLGCG-NH2; thioether N-14)
211 nM | CC[C@H](C)[C@@H]1NC(=O)[C@H](CCCNC(=N)N)NC(=O)[C@H](Cc2ccc(O)cc2)NC(=O)[C@H](Cc2ccc(O)cc2)NC(=O)[C@H](Cc2c[nH]cn2)NC(=O)[C@H](Cc2c[nH]cn2)NC(=O)[C@H](Cc2ccc(O)cc2)NC(=O)CSC[C@@H](C(=O)NCC(N)=O)NC(=O)CNC(=O)[C@H](CC(C)C)NC(=O)CNC(=O)CNC(=O)[C@H](Cc2ccc(O)cc2)NC(=O)[C@H](CC(C)C)NC1=O ({CH2CO}-YHHYYRILYGGLGCG-NH2; thioether N-14)
12 nM | CC(C)C[C@@H]1NC(=O)[C@H](CO)NC(=O)CNC(=O)[C@H](Cc2ccc(O)cc2)NC(=O)[C@H](CC(C)C)NC(=O)[C@H](CO)NC(=O)[C@H](C(C)C)NC(=O)[C@H](Cc2ccc(O)cc2)NC(=O)[C@H](Cc2ccc(O)cc2)NC(=O)[C@H](CC(C)C)NC(=O)[C@H](Cc2c[nH]cn2)NC(=O)[C@H](Cc2ccc(O)cc2)NC(=O)CSC[C@@H](C(=O)NCC(N)=O)NC(=O)CNC1=O ({CH2CO}-YHLYYVSLYGSLGCG-NH2; thioether N-14)
4.9 nM | CC[C@H](C)[C@@H]1NC(=O)[C@H](Cc2cnc[nH]2)NC(=O)[C@H](Cc2ccc(O)cc2)NC(=O)CSC[C@@H](C(=O)NCC(N)=O)NC(=O)CNC(=O)[C@H](CC(C)C)NC(=O)[C@H](CO)NC(=O)CNC(=O)[C@H](Cc2ccc(O)cc2)NC(=O)[C@H](CC(C)C)NC(=O)[C@H](CO)NC(=O)[C@H](C)NC(=O)[C@H](Cc2ccc(O)cc2)NC(=O)[C@@H](Cc2ccc(O)cc2)NC1=O
166 nM | CC[C@H](C)[C@@H]1NC(=O)[C@H](CCCNC(=N)N)NC(=O)[C@H](Cc2ccc(O)cc2)NC(=O)[C@H](Cc2ccc(O)cc2)NC(=O)[C@H](Cc2c[nH]cn2)NC(=O)[C@H](Cc2c[nH]cn2)NC(=O)[C@H](Cc2ccc(O)cc2)NC(=O)CSC[C@@H](C(=O)NCC(N)=O)NC(=O)CNC(=O)[C@H](CC(C)C)NC(=O)[C@H](CCC(=O)O)NC(=O)CNC(=O)[C@H](Cc2ccc(O)cc2)NC(=O)[C@H](CC(C)C)NC1=O ({CH2CO}-YHHYYRILYGELGCG-NH2; thioether N-14)
9 nM | CC(C)C[C@@H]1NC(=O)[C@H](CO)NC(=O)[C@H](Cc2ccc(O)cc2)NC(=O)[C@H](Cc2ccc(O)cc2)NC(=O)[C@H](Cc2ccc(O)cc2)NC(=O)[C@H](C(C)C)NC(=O)[C@H](Cc2c[nH]cn2)NC(=O)[C@H](Cc2ccc(O)cc2)NC(=O)CSC[C@@H](C(=O)NCC(N)=O)NC(=O)CNC(=O)[C@H](CC(C)C)NC(=O)[C@@H]2CCCN2C(=O)CNC(=O)[C@H](Cc2ccc(O)cc2)NC1=O ({CH2CO}-YHVYYYSLYGPLGCG-NH2; thioether N-14)
